What was measured:
SF539 (Glioblastoma) [1] = experiment: Bliss excess, mean over the matrix (fraction); higher = more synergy
Procedure, shortened: (§1)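 Cell lines in DMEM/F12 or RPMI with 10% FBS were plated in 1536-well plates, held 24 hours at 37°C, 5% CO2, then given two-drug dose matrices for 72 hours (DMSO typically 0.2%). Viability was read by CellTiter-Glo 2.0 luminescence and scaled as inhibition from 0 (vehicle wells) to 1 (blank wells). Combination Emax is the second-highest inhibition in the matrix; Bliss excess is observed combination effect minus expected EA + EB − EA·EB, EA and EB being single-agent effects.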

[2] = system: NCI-H2342 (Lung Adenocarcinoma); experiment: as above
Procedure, shortened: as §1

[3] = system: RKN (Other Solid Carcinomas); experiment: as above
Procedure, shortened: as §1

[4] = system: VAL (B-Cell Non-Hodgkin's Lymphoma); experiment: as above
Procedure, shortened: as §1

NB12 (Neuroblastoma) = experiment: as above
Procedure, shortened: as §1

SK-MEL-2 (Melanoma) [5] = experiment: as above
Procedure, shortened: as §1

[6] = system: PSN1 (Pancreatic Carcinoma); experiment: as above
Procedure, shortened: as §1

[7] = system: MFE-280 (Endometrial Carcinoma); experiment: as above
Procedure, shortened: as §1

IST-MES1 (Mesothelioma) [8] = experiment: as above
Procedure, shortened: as §1

[9] = system: SK-PN-DW (Other Solid Carcinomas); experiment: as above
Procedure, shortened: as §1

[10] = system: CAL-62 (Thyroid Gland Carcinoma); experiment: as above
Procedure, shortened: as §1

[11] = system: RCM-1 (Colorectal Carcinoma); experiment: as above
Procedure, shortened: as §1

[12] = system: REH (B-Lymphoblastic Leukemia); experiment: as above
Procedure, shortened: as §1

[13] = system: PANC-03-27 (Pancreatic Carcinoma); experiment: as above
Procedure, shortened: as §1

[14] = system: COLO-680N (Esophageal Squamous Cell Carcinoma); experiment: as above
Procedure, shortened: as §1

[15] = system: SHP-77 (Small Cell Lung Carcinoma); experiment: as above
Procedure, shortened: as §1

[16] = system: L-1236 (Hodgkin's Lymphoma); experiment: as above
Procedure, shortened: as §1

[17] = system: OVMIU (Ovarian Carcinoma); experiment: as above
Procedure, shortened: as §1

[18] = system: PC-3_[JPC-3] (Lung Adenocarcinoma); experiment: as above
Procedure, shortened: as §1

[19] = system: OPM-2 (Plasma Cell Myeloma); experiment: as above
Procedure, shortened: as §1

[20] = system: LK-2 (Squamous Cell Lung Carcinoma); experiment: as above
Procedure, shortened: as §1

[21] = system: TE-8 (Esophageal Squamous Cell Carcinoma); experiment: as above
Procedure, shortened: as §1

[22] = system: MKN45 (Gastric Carcinoma); experiment: as above
Procedure, shortened: as §1

[23] = system: HSC-39 (Gastric Carcinoma); experiment: as above
Procedure, shortened: as §1

SF539 (Glioblastoma) [24] = experiment: combination Emax (second highest fraction inhibited in the dose matrix, 72 h); higher = more inhibition; extreme values may be limits of the assay
Procedure, shortened: as §1

[25] = system: NCI-H2342 (Lung Adenocarcinoma); experiment: as above
Procedure, shortened: as §1

[26] = system: RKN (Other Solid Carcinomas); experiment: as above
Procedure, shortened: as §1

[27] = system: VAL (B-Cell Non-Hodgkin's Lymphoma); experiment: as above
Procedure, shortened: as §1

SK-MEL-2 (Melanoma) [28] = experiment: as above
Procedure, shortened: as §1

[29] = system: PSN1 (Pancreatic Carcinoma); experiment: as above
Procedure, shortened: as §1

[30] = system: MFE-280 (Endometrial Carcinoma); experiment: as above
Procedure, shortened: as §1

IST-MES1 (Mesothelioma) [31] = experiment: as above
Procedure, shortened: as §1

[32] = system: SK-PN-DW (Other Solid Carcinomas); experiment: as above
Procedure, shortened: as §1

[33] = system: CAL-62 (Thyroid Gland Carcinoma); experiment: as above
Procedure, shortened: as §1

[34] = system: RCM-1 (Colorectal Carcinoma); experiment: as above
Procedure, shortened: as §1

[35] = system: REH (B-Lymphoblastic Leukemia); experiment: as above
Procedure, shortened: as §1

[36] = system: PANC-03-27 (Pancreatic Carcinoma); experiment: as above
Procedure, shortened: as §1

[37] = system: COLO-680N (Esophageal Squamous Cell Carcinoma); experiment: as above
Procedure, shortened: as §1

[38] = system: SHP-77 (Small Cell Lung Carcinoma); experiment: as above
Procedure, shortened: as §1

[39] = system: L-1236 (Hodgkin's Lymphoma); experiment: as above
Procedure, shortened: as §1

[40] = system: OVMIU (Ovarian Carcinoma); experiment: as above
Procedure, shortened: as §1

[41] = system: PC-3_[JPC-3] (Lung Adenocarcinoma); experiment: as above
Procedure, shortened: as §1

[42] = system: OPM-2 (Plasma Cell Myeloma); experiment: as above
Procedure, shortened: as §1

[43] = system: LK-2 (Squamous Cell Lung Carcinoma); experiment: as above
Procedure, shortened: as §1

[44] = system: TE-8 (Esophageal Squamous Cell Carcinoma); experiment: as above
Procedure, shortened: as §1

[45] = system: MKN45 (Gastric Carcinoma); experiment: as above
Procedure, shortened: as §1

[46] = system: HSC-39 (Gastric Carcinoma); experiment: as above
Procedure, shortened: as §1
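Throughout, for Bliss excess, mean over the matrix: after 72 h of two-drug dosing.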

In the case of `C[C@@H]1COCCN1c1cc(C2([S@](C)(=N)=O)CC2)nc(-c2ccnc3[nH]ccc23)n1` [AZD6738] + C1CC(C1)(C(=O)[O-])C(=O)[O-].N.N.[Pt+2] [Carboplatin] (first compound max 10 µM, 7x7, partner max 10 µM), the Bliss excess (SF539 (Glioblastoma) [1]) is reported as -0.0835, the Bliss excess [2] is reported as -0.0422 and the Bliss excess [3] is reported as -0.0615. For the same molecule, the Bliss excess [4] was -0.0465, the Bliss excess (NB12 (Neuroblastoma)) was -0.0444 and the Bliss excess (SK-MEL-2 (Melanoma) [5]) was -0.005. The Bliss excess [6] was -0.0278, the Bliss excess [7] was -0.0617 and the Bliss excess (IST-MES1 (Mesothelioma) [8]) was -0.0502. The Bliss excess [9] was -0.0517, the Bliss excess [10] was -0.0402 and the Bliss excess [11] was -0.0443. For the same molecule, the Bliss excess [12] was 0.0175, the Bliss excess [13] was -0.0554 and the Bliss excess [14] was -0.0073. It also gave a Bliss excess [15] of 0.0138, a Bliss excess [16] of -0.0366 and a Bliss excess [17] of -0.0369. The Bliss excess [18] was -0.0326, the Bliss excess [19] was -0.051 and the Bliss excess [20] was -0.04. It also gave a Bliss excess [21] of -0.0806, a Bliss excess [22] of -0.104 and a Bliss excess [23] of -0.0265. The “combination Emax” value (SF539 (Glioblastoma) [24]) was 0.875, the “combination Emax” value [25] was 0.492 and the “combination Emax” value [26] was 0.286. For the same molecule, the “combination Emax” value [27] was 0.7, the “combination Emax” value (SK-MEL-2 (Melanoma) [28]) was 0.201 and the “combination Emax” value [29] was 0.435. The “combination Emax” value [30] was 0.302, the “combination Emax” value (IST-MES1 (Mesothelioma) [31]) was 0.461 and the “combination Emax” value [32] was 0.903. The “combination Emax” value [33] was 0.684, the “combination Emax” value [34] was 0.638 and the “combination Emax” value [35] was 0.629. For the same molecule, the “combination Emax” value [36] was 0.652, the “combination Emax” value [37] was 0.287 and the “combination Emax” value [38] was 0.506. For the same molecule, the “combination Emax” value [39] was 0.807, the “combination Emax” value [40] was 0.547 and the “combination Emax” value [41] was 0.294. The “combination Emax” value [42] was 0.828, the “combination Emax” value [43] was 0.406 and the “combination Emax” value [44] was 0.522. For the same molecule, the “combination Emax” value [45] was 0.708 and the “combination Emax” value [46] was 1.
